Key:
BC3 Hl cells = assay: Diacylglycerol and phosphatidic acid production in labeled BC3 Hl myocytes; type: cell-based, murine
Description: FIG. 12--Time Course of Diacylglycerol and Phosphatidic Acid Production in Response to Insulin. Myocytes were incubated for 20 hrs. in serum free DMEM with [9,10^3 H]myristic acid (New England Nuclear), complexed 1:1 to bovine serum albumin. Insulin was added to cells in fresh media for the designated intervals, and reactions were stopped by removal of media and addition of 1 ml chloroform/methanol/1N HCl (200:100:1). 0.6ml H2 O was added and upper aqueous phases were discarded following centrifugation at 500×g for 5 minutes. The lower, organic phases were dried under N2 and resuspended in 1 ml diethyl ether followed by addition of 1 […]. The upper ether phase was aspirated and the lower phase reextracted with 1 ml diethyl ether. The combined ether phases, containing diacylglycerol, were dried under N2, resuspended in chloroform and spotted on silica gel G plates which were preactivated at 60° C. for 1 hr. Plates were twice developed in petroleum ether/diethyl ether/glacial acetic acid (70:30:2). Five ug of unlabeled dimyristoylglycerol were added to each sample. Spots were visualized by iodine staining. To the lower aqueous phases from the ether extraction were added 1 ml of chloroform/methanol (2:1). Following centrifugation, the resulting upper aqueous phases were discarded and the lower organic phases dried under N2, resuspended in chloroform/methanol/H2 O (9:7:2) and spotted on "soft plus" silica gel plates. These were developed in chloroform/pyridine/70% formic acid (50:30:7), and phosphatidic acid was identified by an iodine stained standard. Lipids were scraped and radioactivity determined in a liquid scintillation counter.
BC3 Hl cells were cultured on collagen coated multiwell plates or petri dishes in Dulbecco's minimal essential medium (DMEM) supplemented with 20% Nu serum or 10% fetal calf serum. Cells were grown to maximal density and confluence, at which time they become responsive to insulin. Radiolabeled precursors were added for 20 hrs. in serum-free medium. [^3 H]Myristic and arachidonic acids were complexed 1:1 to bovine serum albumin prior to addition.
Following preincubations with the appropriate isotopes, cells were resuspended in DMEM without serum and treated with 10 nM insulin at the designated intervals. Reactions were terminated by the addition of 1 ml chloroform/methanol/1N HCl (200:100:1), followed by 0.5 ml 10 mM formic acid. Following centrifugation at 500 x g for 5 min., the upper phase was discarded. For phospholipid analyses, the lower, organic phase was dried under N2, resuspended in chloroform/methanol/H2 O (9:7:2) and spotted on oxalate impregnated silica gel G plates. These were sequentially developed in chloroform/acetone/methanol/glacial acidic acid/H2 O (10:4:2:2:1) and chloroform/methanol/4N NH4 OH (45:35:10). One cm regions were scraped and eluted with chloroform/methanol (2:1) and counted. Phosphoinositide standards were identified by iodine staining.
For analysis of neutral lipids, the chloroform/methanol organic phases were dried under N2 and resuspended in 1 ml diethyl ether followed by addition of 1 ml 50 mM formic acid. The upper ether phase was aspirated and the lower aqueous phase was reextracted with 1 ml diethyl ether. The pooled ether phases were dried under N2, resuspended in chloroform and spotted on silica gel G plates which were preactiviated at 60° C. for 1 hr. Plates were twice developed in petroleum ether/diethyl ether/glacial acetic acid (70:30:2). Five ug of unlabeled dimyristoyl glycerol, myristic acid and monomyristoyl glycerol were added as carriers to each sample.

cAMP phosphodiesterase = assay: Generation of PDE messenger from liver membranes by insulin or PI-PLC; extracts assayed on cAMP phosphodiesterase; type: biochemical, rat
Description: These were generated from bovine liver particulate fractions by a modification of previously described methods. Particulate fraction was prepared from 100 g of bovine liver, and suspended in […] ammonium bicarbonate, pH 7.4. (Buffer A) at a final concentration of 2-4 mg protein/ml. This solution was incubated with […] for 10 min at 37° C., acidified to pH 4.0 with formic acid and sedimented at 45,000 g for 20 min. An equal volume of chloroform/methanol (2:1) was added to the supernatant, and the upper phase was aspirated and methanol was evaporated.
In the tests the results of which are tabulated above, liver membranes were treated as indicated for 10 min at 37° C., centrifuged and supernatants were extracted and purified up to and including the Dowex 50WX-4 step as described earlier herein under "Experimental Frocedures".
Partially purified extracts were assayed for ability to modulate cAMP phosphodiesterase. Basal activity was 56.2 pmoles/mg protein^-1 -min^-1.

Pyruvate Dehydrogenase = assay: Generation of an enzyme modulator from liver plasma membranes, pyruvate dehydrogenase readout; type: biochemical, rat
Description: Purification of the Enzyme Modulator. Bovine liver particulate fraction was prepared as described previously [Saltiel A. R., (1984) "Preparation and Characterization of Putative Insulin Mediators from Liver", METHODS IN DIABETES […], eds. J. Larner, S. Pohl, I:73]. Solutions were incubated in 5 mM ammonium bicarbonate, pH 7.4 with 10 nM insulin or 1 ug/ml PI-PLC as described in the figure legends. Following incubation, solutions were acidified to pH 4.0 and centrifuged at 35,000 x g for 20 minutes. Resulting supernatants were extracted with chloroform/methanol (2:1). The upper aqueous phase was aspirated and methanol was evaporated. Enzyme modulating activities were purified as described in Publication No. 6 listed earlier herein. Briefly, the extract was chromatographed on DEAE-Cellulose and eluted with 0.25M triethylamine (TEA)-formate, pH 3.75. This was followed by chromatography on C-18 reversed phase resin, in the same buffer, followed by Dowex 50W X-4 in 50 mM TEA-formate, pH 3.0. The resulting eluate was lyophilized, resuspended in 50 mM TEA-formate, pH 4.5 and sequentially chromatographed on QAE-Sephadex, SAX HPLC and a P-2 gel filtration column. Only the cyclic inositol phosphate derivative residing in Peak I was examined.
Enzyme Assays. The low Km cAMP PDE was assayed in a rat adipocyte particulate fraction as previously described [Saltiel, A. R., Steigerwalt,R. W., (1986) "Purification of Putative Insulin-Sensitive cAMP Phosphodiesterase or its Catalytic Domain From Rat Adipocytes", DIABETES, 35:698] and as later modified in Publication No. 6. Activity was linear throughout 20 min. and proportional to protein concentration. Only the low Km species of the enzyme was present in this fraction. PDH activity was assayed in liver mitoplasts after preincubation with ATP as previously described [Saltiel et al., (1982) PROC. NATL. ACAD. SCI. U.S.A., 79:3513.]. Adenylate cyclase activity was also assayed in purified adipocyte plasma membranes. For all enzyme assays, variability was less than 5%.
Liver membranes were treated with or without 10 nM insulin or 1 ug/ml PI-PLC for 10 min. at 37° C. Following cetrifugation, the supernatants were extracted and purified up to and including the SAX HPLC step. Purified extracts were added to enzyme assays at a final dilution of 1:10. Enzyme activities were assayed with no additions or after addition of purified extracts from control, insulin or PIPPLC treated membrane. Percent of basal activity is expressed in parentheses. ^1 expressed as pmoles/mg protein-min. ^2 expressed as nmoles/mg protein-min.

## Insulin: monocomponent bovine insulin
BC3 Hl cells
  generation of [3H]stearyl diacylglycerol: no detectable effect
BC3 Hl cells; [3H]myristate labeled cells
  change in [3H]myristoyl diacylglycerol: rapid increase
  time of maximal increase in labeled diacylglycerol: 1 min
BC3 Hl cells; cells incubated with [3H]arachidonic acid
  change in [3H]arachidonyl diacylglycerol: slow increase
BC3 Hl cells; insulin, achieved by 5 minutes
  increase in levels of [3H]myristate phosphatidic acid: 2 fold
BC3 Hl cells; insulin, by 5-10 minutes
  maximal increase of labeled diacylglycerol over basal: 50%
BC3 Hl cells; insulin, within 1 minute
  increase in [3H]myristate diacylglycerol: 40%
cAMP phosphodiesterase; after partial purification, PI-PLC 1.0 ug/ml
  stimulation/increase of production of PDE modulating activity from membranes: 4 fold
cAMP phosphodiesterase; extract of liver membranes treated 10 min at 37° C. (1.0 nM Insulin, PI-PLC), purified up to Dowex 50WX-4, basal 56.2, untreated membranes 78.5
  PDE Activity: 138.0 pmol mg protein^-1 min^-1
Pyruvate Dehydrogenase; extract as E41, no addition 1.77±0.07, control membranes 2.45±0.20
  Pyruvate Dehydrogenase activity: 4.80±0.38 nmoles/mg protein-min.
Pyruvate Dehydrogenase; membranes exposed to 10 nM insulin 10 min.
  stimulation of PDH by the substance generated: 2-3 fold

Reference: US4839466A, “Insulin activity messengers” (The Rockefeller University, priority 1987, dated 1989)
